System: rat model of hyperuricemia induced by adenine (100 mg/kg)+ethambutol (250 mg/kg)
Experiment: Rat model of hyperuricemia induced by adenine + ethambutol; serum UA, CREA, UREA
Type: in vivo
Method: 40 rats were randomly divided into 5 groups with 8 rats in each group. The groups were as follows: Blank Group (Vehicle, ig); Model Group (Vehicle, ig); Positive control group (Allopurinol, 10 mg/kg, ig); Compound 1 group (Sevelamer carbonate, 250 mg/kg, ig); Compound 2 group (PAA polymer, 50 mg/kg, ig). Except for Blank group, rats in other groups were modeled according to the chronic modeling method. The modeling method was as follows: rats were given Adenine (100 mg/kg)+Ethambutol (250 mg/kg) by gavage, once a day, for 21 days. Animals in blank group and model group were given equal volume of normal saline by gavage. Animals in positive control group were given 10 mg/kg Alloalcohol by gavage, once in the first week, once in the second week, once a day for 3 days before sampling in the third week. Animals in each group were given intragastric administration once a day for 14 consecutive days from the 8th day of modeling. Blood samples were taken at Day 21 after modeling, and serum samples were separated and stored at −80[…] for biochemical detection.
After 21 days of modeling (14 days of drug treatment), blood samples were taken and serum separation was performed to detect three renal functions (UA, CREA and UREA) (See Table 1 and FIGS. 1a to 1c). Compound 1 is Sevelamer carbonate and Compound 2 is a polyallylamine-based copolymer having a general structure of formula (4) as described herein.

[1] = after 21 days of modeling, adenine + ethambutol model
[2] = serum, after 21 days of modeling (14 days of administration), ig, Allopurinol 10 mg/kg, Compound 1 250 mg/kg, Compound 2 50 mg/kg

Which “level of CREA compared with the model group (in words)” value [1] does the source give for `Oc1ncnc2[nH]ncc12` [Allopurinol] here?
Its value is “significantly reduced”.

And the “level of UA compared with the model group (in words)” value [1]?
Its value is “significantly reduced”.

And the “level of UREA compared with the model group (in words)” value [1]?
Its value is “significantly reduced”.

What about the CREA [2] of the same molecule?
Its CREA is 54.73 ± 4.75 ^ μmol/L.

What about the UA [2] of the same molecule?
Its UA is 12.88 ± 6.01 µmol/L.

What about the UREA [2] of the same molecule?
Its UREA is 5.82 ± 1.10 mmol/L.

From US12478638B2, “Polymers, compositions and methods for treating hyperuricemia” (WATERSTONE PHARMACEUTICALS (WUHAN) CO., LTD., priority 2021, dated 2025)
